Measurements from the supplement of paper PMC10307832.

Assays:
Experiment in all cases: relative viability (nuclei count vs DMSO), 5 days (fraction); higher = more cells survive
AZD5582 + Navitoclax = compound: C[C@@H](C(=O)N[C@@H](C1CCCCC1)C(=O)N2CCC[C@H]2C(=O)N[C@@H]3[C@@H](CC4=CC=CC=C34)OCC#CC#CCO[C@@H]5CC6=CC=CC=C6[C@@H]5NC(=O)[C@@H]7CCCN7C(=O)[C@H](C8CCCCC8)NC(=O)[C@H](C)NC)NC [AZD5582] + CC1(C)CCC(c2ccc(Cl)cc2)=C(CN2CCN(c3ccc(C(=O)NS(=O)(=O)c4ccc(N[C@H](CCN5CCOCC5)CSc5ccccc5)c(S(=O)(=O)C(F)(F)F)c4)cc3)CC2)C1 [Navitoclax] (partner 0.5 µM)
Outline: (§1)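 Lung cancer cell lines in 1536-well plates got either a single drug or a fixed anchor-drug dose together with five library-drug doses (not always all listed) in √10 steps, by pin tool, on the day after seeding. Nuclei were counted after 5 days, and relative viability is the treated-to-vehicle ratio of nuclei counts. Values are medians of duplicate plates.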

AZD5582 + Lapatinib = compound: C[C@@H](C(=O)N[C@@H](C1CCCCC1)C(=O)N2CCC[C@H]2C(=O)N[C@@H]3[C@@H](CC4=CC=CC=C34)OCC#CC#CCO[C@@H]5CC6=CC=CC=C6[C@@H]5NC(=O)[C@@H]7CCCN7C(=O)[C@H](C8CCCCC8)NC(=O)[C@H](C)NC)NC [AZD5582] + CS(=O)(=O)CCNCc1ccc(-c2ccc3ncnc(Nc4ccc(OCc5cccc(F)c5)c(Cl)c4)c3c2)o1 [Lapatinib] (partner 2 µM)
Outline: as §1

[1] = compound: Cn1nnc2c(C(N)=O)ncn2c1=O [Temozolomide] + CCNC(=O)c1noc(-c2cc(C(C)C)c(O)cc2O)c1-c1ccc(CN2CCOCC2)cc1 [Luminespib] (partner 0.01 µM)
Outline: as §1

Temozolomide + Dasatinib = compound: Cn1nnc2c(C(N)=O)ncn2c1=O [Temozolomide] + Cc1nc(Nc2ncc(C(=O)Nc3c(C)cccc3Cl)s2)cc(N2CCN(CCO)CC2)n1 [Dasatinib] (partner 0.075 µM)
Outline: as §1

Row | Cell Line | relative viability (AZD5582 + Navitoclax; first compound 0.001581 µM) | relative viability (AZD5582 + Navitoclax; first compound 0.005 µM) | relative viability (AZD5582 + Navitoclax; first compound 0.01581 µM) | relative viability (AZD5582 + Navitoclax; first compound 0.05 µM) | relative viability (AZD5582 + Lapatinib; first compound 0.001581 µM) | relative viability (AZD5582 + Lapatinib; first compound 0.005 µM) | relative viability (AZD5582 + Lapatinib; first compound 0.01581 µM) | relative viability (AZD5582 + Lapatinib; first compound 0.05 µM) | relative viability ([1]; first compound 0.2 µM) | relative viability ([1]; first compound 0.6325 µM) | relative viability ([1]; first compound 2 µM) | relative viability ([1]; first compound 6.325 µM) | relative viability ([1]; first compound 20 µM) | relative viability (Temozolomide + Dasatinib; first compound 0.2 µM) | relative viability (Temozolomide + Dasatinib; first compound 0.6325 µM) | relative viability (Temozolomide + Dasatinib; first compound 2 µM) | relative viability (Temozolomide + Dasatinib; first compound 6.325 µM) | relative viability (Temozolomide + Dasatinib; first compound 20 µM)
1 | NCI-H647 | 1.02 | 1.09 | 0.919 | 1.27 | 0.839 | 0.943 | 0.98 | 0.767 | 0.17 | 0.174 | 0.197 | 0.114 | 0.0944 | 0.206 | 0.22 | 0.303 | 0.117 | 0.111
2 | NCI-H838 | 1.09 | 1.2 | 1.05 | 1.18 | 0.823 | 0.964 | 0.746 | 0.979 | 0.357 | 0.346 | 0.35 | 0.301 | 0.393 | 0.28 | 0.253 | 0.426 | 0.311 | 0.281
3 | NCI-H2087 | 1.03 | 0.864 | 1.05 | 1.05 | 0.929 | 1.06 | 0.808 | 1.08 | 0.204 | 0.188 | 0.188 | 0.165 | 0.168 | 0.909 | 0.97 | 1.02 | 0.734 | 0.882
4 | NCI-H322M | 1.15 | 1.32 | 1.14 | 1.4 | 0.678 | 0.796 | 0.619 | 0.774 | – | 0.935 | 0.968 | 0.786 | 0.712 | – | 0.275 | 0.274 | 0.256 | 0.218
5 | PC-14 | 1.06 | 0.967 | 0.969 | 1.11 | 0.301 | 0.391 | 0.33 | 0.223 | 0.143 | 0.151 | 0.167 | 0.244 | 0.144 | 0.216 | 0.317 | 0.318 | 0.257 | 0.0365
6 | NCI-H460 | 1.08 | 1.03 | 1.06 | 1.03 | 0.836 | 0.959 | 0.932 | 1.43 | 0.0394 | 0.0362 | 0.0277 | 0.0344 | 0.0293 | 0.525 | 0.547 | 0.556 | 0.417 | 0.486
7 | SK-LU-1 | 0.462 | 0.471 | 0.819 | 0.351 | 0.645 | 0.639 | 0.859 | 0.317 | 0.231 | 0.195 | 0.189 | 0.191 | 0.24 | 0.196 | 0.178 | 0.206 | 0.143 | 0.197
8 | H3255 | 0.479 | 0.59 | 0.375 | 0.213 | 0.249 | 0.284 | 0.208 | 0.216 | – | 0.991 | 0.946 | 0.868 | 0.28 | – | 0.406 | 0.283 | 0.263 | 0.202
9 | NCI-H1355 | 0.926 | 0.951 | 0.954 | 1.01 | 0.945 | 0.887 | 0.952 | 0.718 | 0.814 | 0.726 | 0.764 | 0.684 | 0.641 | 0.713 | 0.732 | 0.828 | 0.699 | 0.818
10 | NCI-H2170 | 0.551 | 0.624 | 0.624 | 0.758 | 0.278 | 0.288 | 0.293 | 0.274 | – | 0.7 | 0.749 | 0.478 | 0.359 | – | 0.677 | 0.655 | 0.503 | 0.259
11 | SK-MES-1 | 1.22 | 1.3 | 1.25 | 1.15 | 0.492 | 0.648 | 0.455 | 0.571 | 0.939 | 0.823 | 0.777 | 0.831 | 0.772 | 0.289 | 0.34 | 0.412 | 0.374 | 0.228
12 | EPLC-272H | 0.608 | 0.743 | 1.05 | 0.208 | 0.313 | 0.16 | 0.573 | 0.11 | 0.234 | 0.279 | 0.304 | 0.707 | 0.446 | 0.368 | 0.411 | 0.413 | 0.337 | 0.267
13 | NCI-H596 | 0.811 | 0.581 | 1.16 | 0.332 | 0.851 | 0.829 | 0.959 | 0.326 | 1.15 | 1.15 | 0.948 | 0.84 | 1.18 | 0.601 | 0.697 | 0.614 | 0.461 | 0.564
14 | 201T | 1.21 | 1.23 | 1.12 | 1.31 | 1.03 | 1.16 | 1.05 | 1.2 | 1.11 | 1.07 | 1.05 | 1.02 | 0.985 | 0.584 | 0.523 | 0.539 | 0.57 | 0.565
15 | LU99A | 0.882 | 0.998 | 0.805 | 0.976 | 1.15 | 1.28 | 0.923 | 1.17 | 0.265 | 0.312 | 0.288 | 0.23 | 0.225 | 0.589 | 0.489 | 0.6 | 0.524 | 0.548
16 | CAL-12T | – | 0.531 | 1.26 | 0.854 | 0.293 | 0.434 | 0.382 | 0.326 | 0.27 | 0.518 | 0.862 | 0.115 | 0.723 | 0.444 | 0.455 | 0.427 | 0.381 | 0.346
17 | NCI-H2126 | 0.829 | 0.835 | 0.834 | 0.706 | 0.845 | 0.854 | 0.719 | 0.75 | 0.917 | 0.927 | 1 | 0.802 | 0.888 | 0.634 | 0.664 | 0.678 | 0.61 | 0.641
18 | BEN | 0.0668 | 0.0512 | 0.0565 | 0.0544 | 0.478 | 0.67 | 0.764 | 0.417 | 0.323 | 0.323 | 0.462 | 0.233 | 0.228 | 0.285 | 0.356 | 0.31 | 0.257 | 0.263
19 | NCI-H2405 | 0.875 | 1.21 | – | 0.866 | 1.11 | 1.21 | – | 1.01 | 0.67 | 0.77 | 0.817 | 0.513 | 0.751 | 0.214 | 0.222 | 0.254 | 0.199 | 0.21
20 | NCI-H727 | 0.409 | 0.426 | 0.366 | 0.483 | 0.613 | 0.868 | 0.822 | 0.89 | 0.239 | 0.397 | 0.299 | 0.37 | 0.325 | 0.332 | 0.406 | 0.334 | 0.273 | 0.299
21 | NCI-H2023 | 0.962 | 0.844 | 1.01 | 0.956 | 0.64 | 1.15 | 0.553 | 0.462 | 1.04 | 0.85 | 0.874 | 0.675 | 0.691 | 0.64 | 0.56 | 0.616 | 0.572 | 0.6
22 | COR-L23 | 0.963 | 1.07 | 1 | 1.22 | 0.982 | 1.08 | 1.07 | 1.1 | 0.639 | 0.669 | 0.737 | 0.696 | 0.612 | 0.635 | 0.516 | 0.542 | 0.461 | 0.6
23 | EMC-BAC-2 | 1.07 | 0.984 | 1.15 | 0.62 | 0.782 | 0.903 | 0.865 | 0.564 | 1.11 | 1.18 | 1.21 | 1.12 | 1.23 | 0.336 | 0.368 | 0.368 | 0.316 | 0.325
24 | A-427 | 0.779 | 0.831 | 0.896 | 0.756 | 0.865 | 0.996 | 0.942 | 0.831 | 0.699 | 0.803 | 0.799 | 0.618 | 0.394 | 0.736 | 0.669 | 0.762 | 0.525 | 0.356
25 | NCI-H2009 | 1.14 | 1.21 | 1.15 | 1.18 | 0.632 | 0.861 | 0.452 | 0.62 | 1.08 | 1.04 | 1.02 | 0.971 | 0.983 | 0.316 | 0.299 | 0.404 | 0.306 | 0.326
26 | NCI-H23 | 0.594 | 0.512 | 0.721 | 0.778 | 0.664 | 0.951 | 0.783 | 0.652 | 0.223 | 0.208 | 0.229 | 0.21 | 0.237 | 0.921 | 0.898 | 0.768 | 0.744 | 0.861
27 | NCI-H2085 | 1.14 | 1.1 | 1.12 | 1.01 | 0.667 | 0.818 | 0.654 | 0.731 | 0.476 | 0.415 | 0.41 | 0.449 | 0.487 | 0.22 | 0.293 | 0.282 | 0.262 | 0.218
28 | NCI-H1755 | 0.933 | 0.973 | 1.01 | 1 | 1.01 | 1.08 | 0.95 | 1.03 | 0.176 | 0.5 | 0.435 | 0.387 | 0.304 | 0.439 | 0.418 | 0.427 | 0.395 | 0.473
29 | NCI-H1666 | 0.823 | 0.859 | 1.11 | 0.837 | 0.488 | 0.712 | 0.673 | 0.744 | 0.976 | 0.993 | 0.874 | 0.677 | 0.701 | 0.859 | 0.821 | 0.728 | 0.571 | 0.56
30 | UMC-11 | 0.333 | 0.299 | 0.335 | 0.321 | 0.89 | 0.976 | 0.851 | 1.01 | 1.05 | 1.07 | 1.17 | 0.971 | 0.66 | 0.567 | 0.469 | 0.536 | 0.489 | 0.442
